Assay results: patent US20110053773A1, “METHODS OF IMPROVING NUTRITIONAL VALUE OF PLANTS” (UNIVERSITY OF TENNESSEE RESEARCH FOUNDATION, priority 2009, published 2011)

Tested on: switchgrass "Alamo"
Test: Sugar content of switchgrass after isoxaben (Example 6)
Assay type: in vivo
Settings: 1120 g ai/ha + 1% v/v crop oil concentrate POST; harvested 8 weeks after application; % of fresh weight basis
Experimental: Switchgrass was harvested 8 weeks after application and three replicates were analyzed compared with an untreated check. Sugar content was assessed on a percentage of the fresh weight and values were converted to a percentage of values derived from the untreated control. Isoxaben increased fructose by 44%, glucose by 33%, and total sugars by 38% in comparison to the untreated check. Switchgrass is currently under evaluations as a biofuels crop whereby enhanced sugar output per acre is desired.

CCC(C)(CC)c1cc(NC(=O)c2c(OC)cccc2OC)on1 [Isoxaben, isoxaben]
fructose increase in comparison to the untreated check: 44%
glucose increase in comparison to the untreated check: 33%
total sugars increase in comparison to the untreated check: 38%
